The values below come from ChEMBL document CHEMBL1201862, “PubChem BioAssay data set” (2004).

Among the test systems are SK-MEL-5; NCI-H460; EKVX; HCT-15; MCF7; MDA-MB-435; HOP-92; CAKI-1; TK-10; SK-MEL-28; NCI-H522; SF-268; UACC-62; RPMI-8226; KM12; ACHN; Hs-578T; RXF 393; U-251; OVCAR-4.
Holding throughout (assay): growth of human tumour cells (NCI), 48 h

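Each compound was tested at five concentrations against cells in 96-well plates for 48 hours. At the GI50, growth is halved.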 Active and inactive are the calls of the source. Rule as the data show it: active = GI50 up to about 1.1 µM and inactive = higher.

On to `O=C(/C=C\Nc1ccccc1O)C(F)(F)F`, for which the GI50 in the test with SK-MEL-5 was 21 µM (inactive); with NCI-H460, 67.5 µM (inactive); with EKVX, 51.2 µM (inactive); in the test on HCT-15, 40.8 µM; in the test on MCF7, 43.9 µM (inactive); with MDA-MB-435 it was 60.1 µM (inactive). The GI50 is > 100 µM (inactive) in the test on HOP-92; 68.1 µM (inactive) in the test on CAKI-1; > 100 µM (inactive) with TK-10; > 100 µM (inactive) with SK-MEL-28; 31 µM (inactive) in the test with NCI-H522; > 100 µM (inactive) with SF-268. The GI50 is 45.4 µM (inactive) in the test on UACC-62; 15.5 µM (inactive) in the test on RPMI-8226; > 100 µM (inactive) with KM12; 67.8 µM (inactive) in the test on ACHN; > 100 µM (inactive) with Hs-578T; > 100 µM (inactive) in the test with RXF 393. The GI50 with U-251 was 41.6 µM (inactive); with OVCAR-4, 71.9 µM (inactive).

As to `CN(C)Cc1cc(/N=N/c2ccccc2Cl)ccc1O`, the GI50 is 11.9 µM (inactive) in the test with SK-MEL-5; 5.98 µM (inactive) in the test with NCI-H460; 49.3 µM (inactive) in the test with EKVX; 20.1 µM in the test with HCT-15; 16.8 µM (inactive) in the test on MCF7; 17.7 µM (inactive) with MDA-MB-435. Besides, the GI50 is 17.1 µM (inactive) with HOP-92; 15.1 µM (inactive) in the test with CAKI-1; 22.1 µM (inactive) in the test on TK-10; 16.9 µM (inactive) in the test with SK-MEL-28; 10.6 µM (inactive) in the test on NCI-H522; 25.1 µM (inactive) in the test with SF-268. The GI50 in the test on UACC-62 is 18.6 µM (inactive); in the test with RPMI-8226, 23.7 µM (inactive); in the test with KM12, 25.9 µM (inactive); in the test on ACHN, 12.1 µM (inactive); with Hs-578T, 16.7 µM (inactive); with RXF 393, 20.3 µM (inactive). Further, the GI50 with U-251 is 23.7 µM (inactive); with OVCAR-4, 52.6 µM (inactive).

With `O=C1c2ccccc2-c2cc([N+](=O)[O-])c([N+](=O)[O-])cc21`, the GI50 in the test with SK-MEL-5 is 1.87 µM (inactive); with NCI-H460 it was 1.51 µM (inactive); in the test on EKVX, 2.04 µM (inactive); with HCT-15 it was 1.78 µM; in the test on MCF7 it was 1.38 µM (inactive); in the test with MDA-MB-435 it was 1.65 µM (inactive). Further, the GI50 in the test on HOP-92 was 1.72 µM (inactive); with CAKI-1 it was 2.47 µM (inactive); in the test with TK-10, 1.48 µM (inactive); with SK-MEL-28 it was 2.9 µM (inactive); in the test on NCI-H522, 1.05 µM (active); with SF-268 it was 2.18 µM (inactive). Moreover, the GI50 with UACC-62 is 1.66 µM (inactive); with RPMI-8226 it was 1.04 µM (active); in the test on KM12 it was 1.61 µM (inactive); in the test on ACHN, 1.68 µM (inactive); with Hs-578T it was 3.78 µM (inactive); with RXF 393, 1.33 µM (inactive). The GI50 with U-251 was 1.56 µM (inactive); in the test on OVCAR-4, 1.81 µM (inactive).

In the case of `O=C1CN2CCN(CC2)CC(=O)Nc2ccc(cc2)S(=O)(=O)c2ccc(cc2)NC(=O)CN2CCN(CC2)CC(=O)Nc2ccc(cc2)S(=O)(=O)c2ccc(cc2)N1`, the GI50 in the test with SK-MEL-5 is 31.8 µM (inactive); in the test with NCI-H460, 19.5 µM (inactive); with EKVX it was > 100 µM (inactive); in the test with HCT-15, 13.4 µM; in the test on MCF7, 18.1 µM (inactive); in the test with MDA-MB-435, 35.2 µM (inactive). Besides, the GI50 in the test with HOP-92 was > 100 µM (inactive); in the test on CAKI-1, > 47.8 µM (inactive); with TK-10 it was > 92.7 µM (inactive); in the test on SK-MEL-28 it was 48.4 µM (inactive); with NCI-H522, 4.71 µM (inactive); in the test on SF-268 it was 19 µM (inactive). The GI50 was 40.1 µM (inactive) in the test with UACC-62; 10.1 µM (inactive) in the test with RPMI-8226; 32.2 µM (inactive) in the test with KM12; 66.4 µM (inactive) in the test on ACHN; > 100 µM (inactive) in the test with Hs-578T; 55.2 µM (inactive) in the test on RXF 393. Further, the GI50 is 13.7 µM (inactive) in the test with U-251 and > 100 µM (inactive) with OVCAR-4.
